According to patent US20080176866A1, “NOVEL HETARYL-PHENYLENEDIAMINE-PYRIMIDINES AS PROTEIN KINASE INHIBITORS” (priority 2006, published 2008):

How the values were obtained:
KDR kinase = molecular target: T1, KDR kinase (Homo sapiens, UniProt P35968); test: KDR kinase assay (HTRF); assay type: biochemical; conditions: KDR kinase-GST, 10 μM ATP
T1 construct: GST; purchased ProQinase GmbH, Freiburg; host or cells: baculovirus-infected insect cells (Sf9)
Description: The KDR-inhibitory activity of the substances of this invention was measured in the KDR-HTRF assay (HTRF=Homogeneous Time Resolved Fluorescence) described in the following paragraphs.
Recombinant KDR kinase-GST fusion protein purified from baculovirus-infected insect cells (Sf9) was purchased from ProQinase GmbH, Freiburg. The substrate used for the kinase reaction was the biotinylated peptide biotin-Ahx-DFGLARDMYDKEYYSVG (C terminus in acid form) which can be purchased for example from Biosynthan GmbH (Berlin-Buch, Germany).
KDR kinase was incubated in the presence of various concentrations of test substances in 5 μL of assay buffer [50 mM Hepes/NaOH pH 7.0, 25 mM MgCl2, 5 mM MnCl2, 1.0 mM dithiothreitol, 0.1 mM sodium orthovanadate, 10 μM adenosine triphosphate (ATP), 0.5 μM substrate, 0.001% (v/v) Nonidet-P40 (Sigma), 1% (v/v) dimethyl sulphoxide] at 22° C. for 45 min. The concentration of KDR was adapted to the particular activity of the enzyme and adjusted so that the assay operated in the linear range. The reaction was stopped by adding 5 μl of a solution of HTRF detection reagents (0.1 μM streptavidin-XLent and 2 nM PT66-Eu chelate, a Europium chelate-labelled anti-phospho-tyrosine antibody from Perkin Elmer) in aqueous EDTA solution (125 mM EDTA, 0.2% (w/v) bovine serum albumin (BSA) in 50 mM HEPES/NaOH pH 7.0).
(§1) The resulting mixture was incubated at 22° C. for 1 h in order to allow formation of the biotinylated phosphorylated substrate and the streptavidin-XLent and PT66-Eu chelate. The amount of phosphorylated substrate was then estimated by measuring the resonance energy transfer from the PT66-Eu chelate to the streptavidin-XLent. For this purpose, the fluorescence emissions at 620 nm and 665 nm after excitation at 350 nm were measured in an HTRF measuring instrument, e.g. a Rubystar (BMG Labtechnologies, Offenburg, Germany) or a Viewlux (Perkin-Elmer). The ratio of the emissions at 665 nm and at 622 nm was taken as a measure of the amount of phosphorylated substrate. The data were normalized (enzymic reaction without inhibitor=0% inhibition, all other assay components but no enzyme=100% inhibition) and IC50 values were calculated with a 4-parameter fit using an inhouse software.

human Aurora-C = molecular target: T2, human Aurora-C (Homo sapiens, UniProt Q9UQB9); test: Aurora-C kinase assay (HTRF); assay type: biochemical; conditions: GST-human Aurora-C, 10 μM ATP
T2 construct: GST; made in house; host or cells: transiently transfected HEK293 cells
T2 sequence (Q9UQB9 1-309): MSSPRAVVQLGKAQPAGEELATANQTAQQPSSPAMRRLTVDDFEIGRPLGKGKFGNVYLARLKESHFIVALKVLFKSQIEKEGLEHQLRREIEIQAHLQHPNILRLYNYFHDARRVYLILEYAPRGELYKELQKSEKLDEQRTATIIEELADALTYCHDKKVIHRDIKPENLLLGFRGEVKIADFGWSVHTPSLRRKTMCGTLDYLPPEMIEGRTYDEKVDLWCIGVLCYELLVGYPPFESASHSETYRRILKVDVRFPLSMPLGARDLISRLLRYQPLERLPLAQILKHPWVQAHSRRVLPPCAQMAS
Description: The Aurora-C inhibitory activity of the substances of this invention was measured in the Aurora-C-HTRF assay (HTRF=Homogeneous Time Resolved Fluorescence) described in the following paragraphs.
Recombinant fusion protein of GST and human Aurora-C was expressed in transiently transfected HEK293 cells and purified by affinity chromatography on glutathione-Sepharose. The substrate used for the kinase reaction was the biotinylated peptide biotin-Ttds-FMRLRRLSTKYRT (C terminus in amide form) which can be purchased for example from JERINI Peptide Technologies (Berlin). Aurora-C was incubated in the presence of various concentrations of test substances in 5 μL of assay buffer [25 mM Hepes/NaOH pH 7.4, 0.5 mM MnCl2, 2.0 mM dithiothreitol, 0.1 mM sodium orthovanadate, 10 μM adenosine triphosphate (ATP), […] substrate, 0.01% (v/v) TritonX-100 (Sigma), 0.05% (w/v) bovine serum albumin (BSA), 1% (v/v) dimethyl sulphoxide] at 22° C. for 60 min. The concentration of Aurora-C was adapted to the particular activity of the enzyme and adjusted so that the assay operated in the linear range. Typical concentrations were in the region of 0.3 nM. The reaction was stopped by adding 5 μl of a solution of HTRF detection reagents (0.2 μM streptavidin-XLent and 1.4 nM anti-phospho-(Ser/Thr)-Akt substrate-Eu-cryptate (C is biointernational, France, product No. 61P02KAE), a Europium-cryptate-labelled phospho-(Ser/Thr)-Akt substrate antibody [product #9611B, Cell Signaling Technology, Danvers, Mass., USA]) in aqueous EDTA solution (40 mM EDTA, 400 mM KF, 0.05% (w/v) bovine serum albumin (BSA) in 25 mM HEPES/NaOH pH 7.0).
as §1, with “formation of a complex of the biotinylated” for “formation of the biotinylated”, “and the detection reagents. The amount” for “and the streptavidin-XLent and PT66-Eu chelate. The amount”, “from the anti-phospho-(Ser/Thr)-Akt substrate-Eu cryptate to the” for “from the PT66-Eu chelate to the”

CDK2/CycE = molecular target: T3, CDK2/CycE (Homo sapiens, UniProt P24941); test: CDK2/CycE kinase assay (HTRF); assay type: biochemical; conditions: 10 μM ATP
T3 construct: GST; purchased ProQinase GmbH, Freiburg; host or cells: baculovirus-infected insect cells (Sf9)
Description: The CDK2/CycE inhibitory activity of the substances of this invention was measured in the CDK2/CycE-HTRF assay (HTRF=Homogeneous Time Resolved Fluorescence) described in the following paragraphs.
Recombinant CDK2-GST and CycE-GST fusion proteins purified from baculovirus-infected insect cells (Sf9) were purchased from ProQinase GmbH, Freiburg. The substrate used for the kinase reaction was the biotinylated peptide biotin-Ttds-YISPLKSPYKISEG (C terminus in amide form) which can be purchased for example from JERINI Peptide Technologies (Berlin).
CDK2/CycE was incubated in the presence of various concentrations of test substances in 5 μL of assay buffer [50 mM Tris/HCl pH 8.0, 10 mM MgCl2, 1.0 mM dithiothreitol, 0.1 mM sodium orthovanadate, 10 μM adenosine triphosphate (ATP), 0.75 μM substrate, 0.01% (v/v) Nonidet-P40 (Sigma), 1% (v/v) dimethyl sulphoxide] at 22° C. for 60 min. The concentration of CDK2/CycE was adapted to the particular activity of the enzyme and adjusted so that the assay operated in the linear range. Typical concentrations were in the region of 1 ng/ml. The reaction was stopped by adding 5 μl of a solution of HTRF detection reagents (0.2 μM streptavidin-XLent and 3.4 nM phospho-(Ser) CDKs substrate antibody [product #2324B, Cell Signaling Technology, Danvers, Mass., USA] and 4 nM Prot-A-EuK [protein A labelled with Europium cryptate from C is biointernational, France, product No. 61 PRAKLB]) in aqueous EDTA solution (100 mM EDTA, 800 mM KF, 0.2% (w/v) bovine serum albumin (BSA) in 100 mM HEPES/NaOH pH 7.0).
as §1, with “formation of a complex of the biotinylated” for “formation of the biotinylated”, “and the detection reagents. The amount” for “and the streptavidin-XLent and PT66-Eu chelate. The amount”, “from the Prot-A-EuK to the” for “from the PT66-Eu chelate to the”

[1] = test system: human MCF7 breast tumour cells; test: MCF7 proliferation assay; assay type: cell-based; conditions: 96 h, 4 days incubation, crystal violet staining
Description: Cultivated human MCF7 breast tumour cells (ATCC HTB-22) were plated out in a density of 5000 cells/measurement point in 200 μl of growth medium (RPMI1640, 10% foetal calf serum, 2 mU/mL insulin, 0.1 nM oestradiol) in a 96-well multititre plate. After 24 hours, the cells from a plate (zero plate) were stained with crystal violet (see below), while the medium in the other plates was replaced by fresh culture medium (200 μl) to which the test substances had been added in various concentrations (0 μM, and in the range 0.01-30 μM; the final concentration of the solvent dimethyl sulphoxide was 0.5%). The cells were incubated in the presence of the test substances for 4 days. The cell proliferation was determined by staining the cells with crystal violet: the cells were fixed by adding 20 μl/measurement point of an 11% strength glutaraldehyde solution at room temperature for 15 min. After the fixed cells had been washed three times with water, the plates were dried at room temperature. The cells were stained by adding 100 μl/measurement point of a 0.1% strength crystal violet solution (pH adjusted to pH 3 by adding acetic acid). After the stained cells had been washed three times with water, the plates were dried at room temperature. The dye was dissolved by adding 100 μl/measurement point of a 10% strength acetic acid solution, and the extinction was determined by photometry at a wavelength of 595 nm. The percentage change in cell growth was calculated by normalizing the measurements to the extinctions of the zero point plate (=0%) and the extinction of the untreated (0 μM) cells (=100%). The IC50 values were determined by means of a 4-parameter fit using the company's own software.

CDK1/CycB = molecular target: T4, CDK1/CycB (Homo sapiens, UniProt P06493); test: CDK1/CycB kinase assay; assay type: biochemical; conditions: 0.5 μM ATP, histone IIIS, 33P filter assay
T4 construct: GST; purchased ProQinase GmbH, Freiburg; host or cells: baculovirus-infected insect cells (Sf9)
Description: Recombinant CDK1- and CycB-GST fusion proteins, purified from baculovirus-infected insect cells (Sf9), were purchased from ProQinase GmbH, Freiburg. The histone IIIS used as kinase substrate can be purchased from Sigma.
CDK1/CycB (5 ng/μL) was incubated in the presence of various concentrations of test substances (0 μM, and within the range 0.01-100 μM) in 40 μL of assay buffer [50 mM Tris/HCl pH 8.0, 10 mM MgCl2, 0.1 mM Na ortho-vanadate, 1.0 mM dithiothreitol, 0.025% PEG 20000, 0.5 μM ATP, 10 μM histone IIIIS, 0.2 μCi/measurement point ^33P-gamma ATP, 0.05% NP40, 1.25% dimethyl sulphoxide] at 22° C. for 10 min. The reaction was stopped by adding EDTA solution (250 mM, pH 8.0, 15 μl/measurement point).
15 μl of each reaction mixture were loaded onto P30 filter strips (from Wallac), and non-incorporated ^33P-ATP was removed by washing the filter strips three times in 0.5% strength phosphoric acid for 10 min each time. After the filter strips had been dried at 70° C. for 1 hour, the filter strips were covered with scintillator strips (MeltiLex™ A, from Wallac) and baked at 90° C. for 1 hour. The amount of incorporated ^33P (substrate phosphorylation) was determined by scintillation measurement in a gamma radiation counter (Wallac).
The measured data were normalized to 0% inhibition (enzyme reaction without inhibitor) and 100% inhibition (all assay components except enzyme). The IC50 values were determined by means of a 4-parameter fit using the company's own software.

T1 sequence (P35968 807-1356 limits assumed): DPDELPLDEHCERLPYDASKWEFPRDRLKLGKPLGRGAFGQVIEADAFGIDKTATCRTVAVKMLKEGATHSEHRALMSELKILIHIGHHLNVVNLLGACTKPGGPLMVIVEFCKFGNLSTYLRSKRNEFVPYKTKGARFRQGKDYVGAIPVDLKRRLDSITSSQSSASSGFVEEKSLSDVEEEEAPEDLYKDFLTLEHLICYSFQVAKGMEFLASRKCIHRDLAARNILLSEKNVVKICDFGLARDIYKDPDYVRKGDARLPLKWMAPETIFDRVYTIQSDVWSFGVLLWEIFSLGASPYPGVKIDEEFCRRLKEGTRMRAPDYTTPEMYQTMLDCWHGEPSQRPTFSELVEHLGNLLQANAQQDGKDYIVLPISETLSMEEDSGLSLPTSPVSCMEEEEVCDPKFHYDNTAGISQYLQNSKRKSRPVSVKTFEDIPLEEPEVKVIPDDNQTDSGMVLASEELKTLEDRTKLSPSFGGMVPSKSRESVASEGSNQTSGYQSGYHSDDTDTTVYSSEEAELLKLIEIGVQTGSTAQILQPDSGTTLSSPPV
T4 sequence (P06493 whole entry): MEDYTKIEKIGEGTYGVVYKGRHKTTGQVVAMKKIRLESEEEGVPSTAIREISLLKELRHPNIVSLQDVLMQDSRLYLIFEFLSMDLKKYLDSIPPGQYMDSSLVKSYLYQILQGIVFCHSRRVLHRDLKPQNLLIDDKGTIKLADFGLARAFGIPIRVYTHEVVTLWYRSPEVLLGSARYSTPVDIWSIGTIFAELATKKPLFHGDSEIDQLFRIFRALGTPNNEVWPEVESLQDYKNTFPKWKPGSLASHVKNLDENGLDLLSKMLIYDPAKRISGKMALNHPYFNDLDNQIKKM
T4 sequence (P14635 whole entry partner): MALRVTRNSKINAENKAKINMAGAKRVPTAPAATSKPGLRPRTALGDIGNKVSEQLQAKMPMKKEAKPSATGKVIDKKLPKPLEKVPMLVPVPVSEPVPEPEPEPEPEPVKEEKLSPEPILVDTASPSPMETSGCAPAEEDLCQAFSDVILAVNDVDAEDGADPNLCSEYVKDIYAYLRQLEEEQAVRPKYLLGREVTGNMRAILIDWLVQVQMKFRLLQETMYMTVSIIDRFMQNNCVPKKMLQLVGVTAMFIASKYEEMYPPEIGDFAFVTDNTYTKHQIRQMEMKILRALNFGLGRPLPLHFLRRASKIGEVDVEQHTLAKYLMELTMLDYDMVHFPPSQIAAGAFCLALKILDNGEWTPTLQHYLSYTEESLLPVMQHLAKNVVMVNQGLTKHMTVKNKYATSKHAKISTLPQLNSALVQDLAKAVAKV

| IC50 (KDR kinase) [nM] | IC50 (human Aurora-C) [nM] | IC50 (CDK2/CycE) [nM] | IC50 [1] [nM] | IC50 (CDK1/CycB) [nM] | Structure (SMILES) |
| --- | --- | --- | --- | --- | --- |
| 23 | 120 | 670 |  |  | Brc1cnc(Nc2cccc(Nc3ncc(Br)c(NCCc4c[nH]cn4)n3)c2)nc1NCCc1c[nH]cn1 [Example 28] |
| 1400 |  | 60 | 800 | 98 | Cc1cc(C)nc(Sc2ccc(Nc3ncc(Br)c(O[C@H](C)[C@@H](C)O)n3)cc2)n1 [Example 41] |
